Legend:
[1] = molecular target: CCK receptor; experiment: 125I-CCK-33 receptor binding (pancreas or brain preparation not given); details: concentration dependent inhibition; tissue (rat pancreas or guinea pig brain) not stated; read-out: IC50, inhibition of specific 125I-CCK-33 binding
Description: The biological activity of the compounds of Formula I have been evaluated using an ^125 I-CCK receptor binding assay and in vitro isolated tissue preparations.
(§1) CCK-33 was radiolabeled with ^125 I-Bolton Hunter reagent (2000 Ci/mmole) as described by Sankara et al. (J. Biol. Chem. 254: 9349-9351, 1979). Receptor binding was performed according to Innis and Snyder (Proc. Natl. Acad. Sci. 77: 6917-6921, 1980) with the minor modification of adding the additional protease inhibitors, phenylmethane sulfonyl fluoride and o-phenanthroline. The latter two compounds have no effect on the ^125 I-CCK receptor binding assay.
Male Sprague-Dawley rats (200-350 g) were sacrificed by decapitation. The whole pancreas was dissected free of fat tissue and was homogenized in 20 volumes of ice-cold 50 mM, Tris HCl (pH 7.7 at 25° C.) with a Brinkmann Polytron PT 10. The homogenates were centrifuged at 48,000 g for 10 min. Pellets were resuspended in Tris Buffer, centrifuged as above and resuspended n 200 volumes of binding assay buffer (50 mM Tris HCl, pH 7.7 at 25° C., 5 mM dithiothriethel, 0.1 mM bacitracin, 1.2 mM phenylmethane sulfonyl fluoride and 0.5 mM o-phenanthroline). For the binding assay, 25 μl of buffer (for total binding) or unlabeled CCK-8 sulfate to give a final concentration of lμM (for nonspecific binding) or the compounds of Formula I (for determination inhibition of ^125 I-CCK binding) and 25 μl of ^125 I-CCK-33 (30,000-40,000 cpm) were added to 450 μl of the membrane suspensions in microfuge tubes. All assays were run in duplicate or triplicate. […] The supernatant was aspirated and discarded, pellets were counted with a Beckman gamma 5000. […]
Male Hartley guinea pigs (300-500 g) were sacrificed by decapitation and the brains were removed and placed in ice-cold 50 mM, Tris HCl plus 7.58 g/l Tritma-7.4 (pH 7.4 at 25° C.) Cerebral cortex was dissected and used as a receptor source. […] The supernatant was aspirated and discarded, pellets were counted with a Beckman gamma 5000.

[2] = test system: guinea pig ileum; experiment: CCK induced contraction, isolated longitudinal muscle of guinea pig ileum; set-up: species or system guinea pig (male Hartley); details: at 4.2 μM
Description: Longitudinal muscle strips with attached nerve plexus were prepared as described previously (Brit J. Pharmac. 23: 356-363, 1964; J. Physiol. 194: 13-33, 1969). Male Hartley guinea pigs were decapitated and the ileum was removed (10 cm of the terminal ileum was discarded and the adjacent 20 cm piece was used). A piece (10 cm) of the ileum was stretched on a glass pipette. Using a cotton applicator to stroke tangently away from the mesentery attachment at one end, the longitudinal muscle was separated from the underlying circular muscle. The longitudinal muscle was then tied to a thread and by gently pulling, stripped away from the entire muscle. A piece of approximately 2 cm was suspended in 5 ml organ bath containing Krebs solution and bubbled with 95% O2 and 5% CO2 at 37° C. under 0.5 g tension. CCK-8 was added cumulatively to the baths and EC50 values in the presence and absence of compounds of Formula I determined as described in the gall bladder protocol (above).

[3] = test system: CCK receptor (pancreas); experiment: CCK Receptor Binding (Pancreas), 125I-CCK-33; set-up: species or system rat (male Sprague-Dawley); details: added as protease inhibitors; binding assay buffer
Description: as §1
Male Sprague-Dawley rats (200-350 g) were sacrificed by decapitation. The whole pancreas was dissected free of fat tissue and was homogenized in 20 volumes of ice-cold 50 mM, Tris HCl (pH 7.7 at 25° C.) with a Brinkmann Polytron PT 10. The homogenates were centrifuged at 48,000 g for 10 min. Pellets were resuspended in Tris Buffer, centrifuged as above and resuspended n 200 volumes of binding assay buffer (50 mM Tris HCl, pH 7.7 at 25° C., 5 mM dithiothriethel, 0.1 mM bacitracin, 1.2 mM phenylmethane sulfonyl fluoride and 0.5 mM o-phenanthroline). […] The supernatant was aspirated and discarded, pellets were counted with a Beckman gamma 5000.

[4] = test system: guinea pig gall bladder; experiment: CCK induced contraction, isolated guinea pig gall bladder; set-up: species or system guinea pig (male Hartley); details: at 26 μM
Description: Male Hartley guinea pigs (400-600 g) were sacrificed by decapitation. The whole gall bladder was dissected free from adjacent tissues and cut into two equal halves. The gall bladder strips were suspended along the axis of bile duct in 5 ml organ bath under 1 g tension. The organ bath contained a Kreb's bicarbonate solution (NaCl 118 mM, KCl 4.75 mM, CaCl 2.54 mM, KH2 PO4 1.19 mM, Mg SO4 1.2 mM, NaHCO3 25 mM and dextrose 11 mM) maintained at 32° C. and bubbled with 95% O2 and 5% CO2. Isometric contractions were recorded using Statham (60 g; 0.12 mm) strain gauges and a Hewlett-Packard (77588) recorder. The tissues were washed every 10 minutes for 1 hr to obtain equilibrium prior to the beginning of the study. CCK-8 was added cumulatively to the baths and EC50 's determined using egression analysis. After washout (every 10 minutes for 1 hr), the compound of Formula I was added at least 5 minutes before the addition of CCK-8 and the EC50 of CCK-8 in the presence of the compound of Formula I similarly determined.

Structure (SMILES) | IC50 [1] | effect on the 125I-CCK receptor binding assay [3] | also measured
COC(=O)CN1C(=O)C(NC(CCc2ccccc2)C(=O)OC)CCc2ccccc21 (racemic) [1-Carbomethoxymethyl-3-(1-carbomethoxy-3-phenyl-1-propyl)aminohomodihydrocarbostyril] | 10000 nM | – | –
CCOC(=O)C(CCc1c[nH]c2ccccc12)NC1CCc2ccccc2N(CC(=O)OC(C)(C)C)C1=O (stereo not drawn) [1-t-Butoxycarbonylmethyl-3-(1-carboethoxy-3-(3)indolyl-1-propyl)amino homodihydrocarbostyril] | 400 nM | – | effect on maximal responses to CCK [2]: without affecting maximal responses; shift of CCK dose response to the right [2]: approximately 2.6 fold
O=S(=O)(F)Cc1ccccc1 [phenylmethane sulfonyl fluoride] | – | no effect | –
CCOC(=O)C(CCc1ccccc1)NC1CCc2ccccc2N(CC(=O)OC(C)(C)C)C1=O (stereo not drawn) [1-t-Butoxycarbonylmethyl-3-(1-carboethoxy-3-phenyl-1-propyl]-amino homodihydrocarbostyril] | 2400 nM | – | –
CCOC(=O)CN1C(=O)C(NC(CCc2ccccc2)C(=O)OCC)CCc2ccccc21 (racemic) [1-Carboethoxymethyl-3-(1-carboethoxy-3-phenyl-1-propyl)-amino homodihydrocarbostyril] | – | – | effect on maximal responses to CCK [4]: without reducing maximal responses; shift of CCK dose response [4]: about 10 times
c1cnc2c(c1)ccc1cccnc12 [o-phenanthroline] | – | no effect | –

— patent US4684645A, “Benzofused lactams as cholecystokinin antagonists” (Merck & Co., Inc., priority 1985, dated 1987)
